Data from US10030006B2, “Coumarin based Hsp90 inhibitors with urea and ether substituents” (University of Kansas, priority 2013, dated 2018).
Read-outs that look alike come from different tables or passages of the source.

Assays:
Type in all cases: cell-based
[1] = tested on: MCF-7 (estrogen receptor positive breast cancer cells); experiment: Anti-proliferation assay (MTS/PMS, 72 h), MCF-7
[2] = tested on: SKBr3 (estrogen receptor negative, Her2 over-expressing breast cancer cells); experiment: Anti-proliferation assay (MTS/PMS, 72 h), SKBr3
[3] = tested on: SKBr3 and MCF-7 cell lines; experiment: Anti-proliferative activity against both breast cancer cell lines (results in words); conditions: for anti-proliferative activity (in words): SKBr3 and MCF-7, Tables 1-5
Protocol: Cells were maintained in a 1:1 mixture of Advanced DMEM/F12 (Gibco) supplemented with non-essential amino acids, L-glutamine (2 mM), streptomycin (500 μg/mL), penicillin (100 units/mL), and 10% FBS. Cells were grown to confluence in a humidified atmosphere (37° C., 5% CO2), seeded (2000/well, 100 μL) in 96-well plates, and allowed to attach overnight. Compound at varying concentrations in DMSO (1% DMSO final concentration) was added, and cells were returned to the incubator for 72 h. At 72 h, the number of viable cells was determined using an MTS/PMS cell proliferation kit (Promega) per the manufacturer's instructions. Cells incubated in 1% DMSO were used at 100% proliferation, and values were adjusted accordingly. IC50 values were calculated from separate experiments performed in triplicate using GraphPad Prism.
The anti-proliferative activity of these compounds is evaluated against two breast cancer cell lines, SKBr3 (estrogen receptor negative, Her2 over-expressing breast cancer cells) and MCF-7 (estrogen receptor positive breast cancer cells).

[4] = Homo sapiens, MCF7, Table 1, modified benzamide coumarin derivatives, read-out: MCF-7
[5] = Homo sapiens, SK-BR-3, Table 1, modified benzamide coumarin derivatives, read-out: SKBr3
[6] = Homo sapiens, MCF7, amide versus urea linkage, read-out: IC50 for MCF-3
[7] = Homo sapiens, SK-BR-3, amide versus urea linkage, read-out: IC50 for SKBr3
[8] = Homo sapiens, MCF7, Table 5, alkylether derivatives with cyclic N-substitutions, read-out: MCF-7
[9] = Homo sapiens, SK-BR-3, Table 5, alkylether derivatives with cyclic N-substitutions, read-out: SKBr3
[10] = Homo sapiens, MCF7, Table 2, modified benzamide and biphenylamide derivatives (in μM), read-out: MCF-7
[11] = Homo sapiens, SK-BR-3, Table 2, modified benzamide and biphenylamide derivatives (in μM), read-out: SKBr3
[12] = Table 4, alkylamino analogues, read-out: MCF-7
[13] = Table 4, alkylamino analogues, read-out: SKBr3
[14] = Table 5, alkylether derivatives with cyclic N-substitutions, read-out: MCF-7
[15] = Table 5, alkylether derivatives with cyclic N-substitutions, read-out: SKBr3

Row | IC50 [1, 4] [µM] | IC50 [2, 5] [µM] | SMILES | anti-proliferative activity (in words) [3] | also measured
1 | 1.61 ± 0.16 | 3.5 ± 0.01 | CC(=O)Oc1ccc(C(=O)Nc2cc3ccc(OC4CCN(C)CC4)c(C)c3oc2=O)cc1Cl [Compound 21e, 2-chloro-4-(8-methyl-7-(1-methylpiperidin-4-yloxy)-2-oxo-2H-chromen-3-ylcarbamoyl)phenyl acetate] | diminished activity | 
2 |  |  | Cc1c(OC2CCN(C)CC2)ccc2cc(NC(=O)Nc3ccccc3)c(=O)oc12 [H, 1-(8-methyl-7-((1-methylpiperidin-4-yl)oxy)-2-oxo-2H-chromen-3-yl)-3-phenylurea] |  | IC50 [1, 6]: 0.89 µM; IC50 [2, 7]: 0.77 µM; increase in inhibition, urea versus amide linkage ([3]; text b189, two breast cancer cell lines): ~15 fold
3 |  |  | CC(C)=CCc1cc(C(=O)Nc2cc3ccc(OCCCNC45CC6CC(CC(C6)C4)C5)c(C)c3oc2=O)ccc1O [Compound 70j, N-(7-(3-((3S,5S,7S)-adamantan-1-ylamino)propoxy)-8-methyl-2-oxo-2H-chromen-3-yl)-4-hydroxy-3-(3-methylbut-2-en-1-yl)benzamide] | good anti-proliferative activity | IC50 [1, 8]: 0.32 ± 0.03 µM; IC50 [2, 9]: 0.31 ± 0.04 µM
4 | 1.62 ± 0.04 | 1.67 ± 0.2 | CC(=O)Oc1ccc(C(=O)Nc2cc3ccc(OC4CCN(C)CC4)c(C)c3oc2=O)cc1 [Compound 21b, 4-(8-methyl-7-(1-methylpiperidin-4-yloxy)-2-oxo-2H-chromen-3-ylcarbamoyl)phenyl acetate] | decreased anti-proliferative activities | 
5 |  |  | COc1cccc(-c2cc(C(=O)Nc3cc4ccc(OC5CCN(C)CC5)c(C)c4oc3=O)ccc2O)c1 [Compound 33a, 6-hydroxy-3′-methoxy-N-(8-methyl-7-(1-methylpiperidin-4-yloxy)-2-oxo-2H-chromen-3-yl)biphenyl-3-carboxamide] | maintains inhibitory activity | IC50 [1, 10]: 0.81 ± 0.14 µM; IC50 [2, 11]: 0.86 ± 0.16 µM
6 |  |  | COC(=O)CNCCCOc1ccc2cc(NC(=O)c3ccc(O)c(CC=C(C)C)c3)c(=O)oc2c1C [Compound 68l] | decreased anti-proliferative activity | IC50 [1, 12]: 2.82 ± 0.27 µM; IC50 [2, 13]: 1.06 ± 0.11 µM
7 | 5.01 ± 0.01 | 3.46 ± 0.02 | Cc1c(OC2CCN(C)CC2)ccc2cc(NC(=O)c3ccc4c(c3)CCC(C)(C)O4)c(=O)oc12 [Compound 20, 2,2-dimethyl-N-(8-methyl-7-(1-methylpiperidin-4-yloxy)-2-oxo-2H-chromen-3-yl)chroman-6-carboxamide] | decreased anti-proliferative activities | 
8 |  |  | COc1cccc(-c2cc(C(=O)Nc3cc4ccc(OC5CCN(C)CC5)c(C)c4oc3=O)ccc2OC(C)=O)c1 [Compound 32a, 3′-methoxy-5-(8-methyl-7-(1-methylpiperidin-4-yloxy)-2-oxo-2H-chromen-3-ylcarbamoyl)biphenyl-2-yl acetate] | maintains inhibitory activity | IC50 [1, 10]: 0.91 µM; IC50 [2, 11]: 0.92 ± 0.06 µM
9 | 11.7 ± 1 | 11.5 ± 2 | Cc1c(OC2CCN(C)CC2)ccc2cc(NC(=O)c3ccccc3)c(=O)oc12 [Compound 21d, N-(8-methyl-7-(1-methylpiperidin-4-yloxy)-2-oxo-2H-chromen-3-yl)benzamide] | significantly decreased activity | IC50 [1, 6]: 11.7 µM; IC50 [2, 7]: 11.5 µM
10 |  |  | CC(C)=CCc1cc(C(=O)Nc2cc3ccc(OCCCNc4ccccc4)c(C)c3oc2=O)ccc1O [Compound 70c] | inactive | IC50 [1, 14]: > 50 µM; IC50 [2, 15]: > 50 µM
11 |  |  | COc1ccc(C(=O)Nc2cc3ccc(OC4CCN(C)CC4)c(C)c3oc2=O)cc1-c1cccc(OC(C)=O)c1 [Compound 32b, 2′-methoxy-5′-(8-methyl-7-(1-methylpiperidin-4-yloxy)-2-oxo-2H-chromen-3-ylcarbamoyl)biphenyl-3-yl acetate] | increases activity almost three-fold | IC50 [1, 10]: 0.36 ± 0.06 µM; IC50 [2, 11]: 0.29 ± 0.01 µM
12 | 1.25 ± 0.39 | 0.6 ± 0.01 | Cc1c(OC2CCN(C)CC2)ccc2cc(NC(=O)c3ccc(O)c(CCC(C)C)c3)c(=O)oc12 [Compound 19, 4-hydroxy-3-isopentyl-N-(8-methyl-7-(1-methylpiperidin-4-yloxy)-2-oxo-2H-chromen-3-yl)benzamide] | no effect on inhibitory activity | 
13 |  |  | CC(C)=CCc1cc(C(=O)Nc2cc3ccc(OCCCNCC(=O)O)c(C)c3oc2=O)ccc1O [Compound 68m] | decreased anti-proliferative activity | IC50 [1, 12]: 18.1 ± 5.35 µM; IC50 [2, 13]: 7.57 ± 2.86 µM
14 | 1.48 ± 0.14 | 2.3 ± 0.57 | Cc1c(OC2CCN(C)CC2)ccc2cc(NC(=O)c3ccc(O)c(Cl)c3)c(=O)oc12 [Compound 22e, 3-chloro-4-hydroxy-N-(8-methyl-7-(1-methylpiperidin-4-yloxy)-2-oxo-2H-chromen-3-yl)benzamide] | diminished activity | 
15 |  |  | CC(C)=CCc1cc(C(=O)Nc2cc3ccc(OCCCN(C)c4ccccc4)c(C)c3oc2=O)ccc1O [Compound 70d] | inactive | IC50 [1, 14]: > 50 µM; IC50 [2, 15]: > 50 µM
16 |  |  | CCCN(CCC)CCCOc1ccc2cc(NC(=O)c3ccc(O)c(CC=C(C)C)c3)c(=O)oc2c1C [Compound 68e, N-(7-(3-(dipropylamino)propoxy)-8-methyl-2-oxo-2H-chromen-3-yl)-4-hydroxy-3-(3-methylbut-2-en-1-yl)benzamide] | did not show any activity at the highest concentration | IC50 ([1]; Homo sapiens, MCF7, Table 4, alkylamino analogues, read-out: MCF-7): > 50 µM; IC50 ([2]; Homo sapiens, SK-BR-3, Table 4, alkylamino analogues, read-out: SKBr3): > 50 µM
17 |  |  | CC(C)=CCc1cc(C(=O)Nc2cc3ccc(OCCCNCC(N)=O)c(C)c3oc2=O)ccc1O [Compound 68n] | decreased anti-proliferative activity | IC50 [1, 12]: 1.46 ± 0.35 µM; IC50 [2, 13]: 2.29 ± 0.47 µM
18 | 2.17 ± 0.11 | 2.43 ± 0.04 | C=CCc1cc(C(=O)Nc2cc3ccc(OC4CCN(C)CC4)c(C)c3oc2=O)ccc1O [Compound 22a, 3-allyl-4-hydroxy-N-(8-methyl-7-((1-methylpiperidin-4-yl)oxy)-2-oxo-2H-chromen-3-yl)benzamide] | decreased anti-proliferative activities | 
19 | 1.43 ± 0.08 | 0.84 ± 0.18 | Cc1c(OC2CCN(C)CC2)ccc2cc(NC(=O)c3ccc(O)cc3)c(=O)oc12 [Compound 22b, 4-hydroxy-N-(8-methyl-7-(1-methylpiperidin-4-yloxy)-2-oxo-2H-chromen-3-yl)benzamide] | decreased anti-proliferative activities | 
20 |  |  | COc1ccc(C(=O)Nc2cc3ccc(OC4CCN(C)CC4)c(C)c3oc2=O)cc1-c1cccc(O)c1 [Compound 33b, 3′-hydroxy-6-methoxy-N-(8-methyl-7-(1-methylpiperidin-4-yloxy)-2-oxo-2H-chromen-3-yl)biphenyl-3-carboxamide] | increases activity almost three-fold | IC50 [1, 10]: 0.38 ± 0.08 µM; IC50 [2, 11]: 0.31 ± 0.04 µM
21 | 2 ± 0.18 | 2.26 ± 0.12 | C=CCc1cc(C(=O)Nc2cc3ccc(OC4CCN(C)CC4)c(C)c3oc2=O)ccc1OC(C)=O [Compound 21a, 2-allyl-4-((8-methyl-7-((1-methylpiperidin-4-yl)oxy)-2-oxo-2H-chromen-3-yl)carbamoyl)phenyl acetate] | decreased anti-proliferative activities | 
22 | 2.1 ± 0.08 | 1.68 ± 0.12 | CC(C)=CCc1cccc(C(=O)Nc2cc3ccc(OC4CCN(C)CC4)c(C)c3oc2=O)c1 [Compound 21c, N-(8-methyl-7-((1-methylpiperidin-4-yl)oxy)-2-oxo-2H-chromen-3-yl)-3-(3-methylbut-2-en-1-yl)benzamide] | two-fold lower activity | 
23 |  |  | CC(C)=CCc1cc(C(=O)Nc2cc3ccc(OCCCN(C)Cc4ccccc4)c(C)c3oc2=O)ccc1O [Compound 70h, N-(7-(3-(benzyl(methyl)amino)propoxy)-8-methyl-2-oxo-2H-chromen-3-yl)-4-hydroxy-3-(3-methylbut-2-en-1-yl)benzamide] | greatly decreased activity | IC50 [1, 8]: 11.5 ± 4.16 µM; IC50 [2, 9]: 10.7 ± 0.49 µM
